# Patent US20080305038A1, “Transport of Nano-and Macromolecular Structures Into Cytoplasm and Nucleus of Cells” (LUDWIG-MAXIMILIANS-UNIVERSITÄT, priority 2005, published 2008)
# “Also recorded” adds a separate entry of the source.
# Columns and labels:
# Format in all cases: cell-based
# HepG2 cells [1] = experiment: Uptake of β-galactosidase, activity visualized by X-Gal; conditions: 5 μM, 1 h or 24 h
# Experimental: Analogous to sections 2.1 to 2.3 above the enzyme β-galactosidase was modified with TP. […] Subsequent to modification HepG2 cells were incubated with (TP) modified β-galactosidase (5 μM) for 1 h or 24 h and then fixed in paraformaldehyde. β-galactosidase activity was visualized by using X-Gal (see FIG. 6).
# intact cells = experiment: Dependency of cellular and nuclear uptake on TP-substituent (chemical modification), intact cells; conditions: chemically modified TP-substituent of FITC-BSA-TP
# Experimental: 1.3 Modification of FITC-BSA-TP Conjugates FITC-BSA was reacted with a 10-fold excess of cystein in PBS (pH=8, He-saturated) for 3 h. Photometric determination of cleaved thiopyridone indicated complete reaction of FITC-BSA-TP to FITC-BSA-Cys. The conjugate was purified chromatographically (Sephadex G-25 superfine HR 10/10 column; Pharmacia, Uppsala, Sweden). FITC-BSA-TP was reacted in presence of 13 mM DTT for 2 h and purified by chromatography in order to obtain a FITC-BSA conjugate with free thiol-function. Determination of degree of conjugation with Ellmanns' reagent indicated complete separation of the thiopyridone moiety, which, in consequence, led to FITC-BSA-SH. The synthesized FITC-BSA-SH conjugate was further reacted with a 50-fold excess of N-ethylmaleimide for 2 h and purified by chromatography subsequently. Controlling the product for remaining thiol moieties by using Elmanns' reagent indicated a complete reaction to FITC-BSA-NEM. 1.4 Coupling of FITC and SPDP to plasmid-DNA Coupling of FITC and SPDP with plasmid-DNA was carried out by photochemical coupling using psoralenamin. Therefore, a kit from company Sima was used (PS-amine). Coupling was carried out following the manufacturers' instructions. 4 μl of reconstituted psoralenamine solution (4.83 psoralenamine) were pipetted to 100 μl solubilized DNA (μCLuc in pur. water, 200 μg/ml DNA). The resulting solution was vortexed vigorously. The solution was irradiated with UV (λ=366 nm, 6 watt, 850 μwatt/cm^2) for 45 minutes on ice. Portions of each 50 μl were purified using a G-25 Microspin column (Amersham) and, subsequently, 2 μl 1×PBS were added. To one 50 μl fraction of the purified Psoralenamin-coupled DNA 2 μl FITC-NHS solution ([…] in DMF) were added. To the other 50 μl fraction a mixture consisting of 2 μl FITC-NHS (10 mg/ml in DMF) 2 μl SPDP (10 mg/ml in EtOH) were added. The solutions were agitated for 1.5 h at room temperature. Subsequent thereto plasmid-DNA conjugates were purified repeatedly using a G-25 Microspin column (Amersham), and used for cell culture experiments. […]
# CHO cells = experiment: Cell surface biotinylation for cargo (FITC-Avidin) uptake, FACS; conditions: CHO cells pretreated 30 minutes at 4° C. at 185 μM, then 75 pmol FITC-Avidin, one hour at 37° C.
# Experimental: (§1) Biotin-HPDP (Pierce, #21341) was solubilized in DMF and diluted in PBS (pH=7.4) to a final concentration of 100 μg/ml. 500 μl of this solution (=92.6 nmol) were incubated on CHO and HeLa cells (1×10^6 cells per Well) for 30 minutes at 4° C. After washing twice with PBS, 5 μg (=75 pmol) Avidin-FITC (Sigma, #A9275) were added and cells were incubated for 1 h at 37° C. After incubation, cells were washed twice with PBS and harvested with Trypsin-EDTA (Invitrogen, #25300-054). […] 1000 cells per sample were counted.
# (§2) Instead of Biotin-HPDP, also Biotin (Sigma, #B4639), Biotin-Maleimid (Sigma, #B1267) or PBS (for determination of unspecific binding of Avidin-FITC) was incubated on the cells at equimolar concentrations.
# HeLa cells = experiment: as above; conditions: HeLa cells pretreated 30 minutes at 4° C. at 185 μM, then 75 pmol FITC-Avidin, one hour at 37° C.
# Experimental: as §1, §2
# HepG2 cells [2] = experiment: Cellular and nuclear uptake, confocal laser scanning microscopy
# Experimental: (§3) Corresponding cell lines were seeded in 8-chamber sample carriers (Falcon, #4108, BD Bioscience, Belgium) resulting in about 70-80% confluence next day. Cells were incubated along with inventive conjugates for 1 h at 37° C. and 5% CO2 in an incubator (c=5 μM). Subsequently thereto cells were washed twice with PBS and fixed with a solution containing 4% paraformaldehyde. The nucleoli were colored by using the fluorescence dye DAPI (0.3 μM) or propidiumiodid (3 μM) and cells were embedded (Vectashield, Vector Laboratories, Burlingame, Calif., USA). Photographs were taken using a Sony 3CCD camera having an Axiovert 135-microscope (Carl-Zeiss, Göttingen, Germany; objective: Plan-Neofluar 100×/1.3 oil). Optical transsections for laser scanning microscopy were performed using a confocal microscope having three channels (TCS 4D; Leica Inc. Deerfield, Ill.) equipped with a Plan Apo 63×/1.32 oil objective). Both fluorescence dyes FITC and propidiumiodide were irradiated at wavelengths 488 nm and 567 nm using an argon/krypton laser. 256×256 8 bit pictures were generated having an axial distance of 250 nm and a pixel size of […]. Each picture series consisted of about 20-25 pictures. Both fluorochromes were mapped sequentially in the same nucleolus layer.
# Confocal laser scanning microscopy was additionally carried out (see FIG. 3), since in epifluorescence, microscopy the resulting signal assumable may be due to association of the FITC-BSA-TP conjugates with the nuclear membrane.
# HepG2 cells [3] = experiment: Quantification of cellular and nuclear uptake by flow cytometry (FACS); conditions: 1 h incubation; for nuclear uptake, nucleus associated FITC fluorescence (FACS): cell lysis with Nonidet P 40, released nucleoli; for cellular uptake (FACS): whole cells detached with trypsine
# Experimental: Therefore, HepG2 cells were incubated for 1 h with FITC labelled constructs or with FITC labelled and TP-modified conjugates as used in experiments 1 to 4. After incubation cells were detached from the bottom of the cell culture plates (whole cells) by using either a trypsine containing solution or a trypsine containing solution supplemented with detergent Nonidet P 40. Detergent Nonidet P 40 leads to lysis of cytoplasm membranes and release of nucleoli. Propidiumiodid was added to trypsine buffer in order to identify the nucleoli.
# HepG2 cells [4] = experiment: Uptake in non-fixed and lysed cells, epifluorescence microscopy
# Experimental: In order to exclude artifacts resulting from fixing of cells FITC-modified BSA and FITC-BSA-TP conjugates (5 μM) were incubated for 1 h with HepG2 cells. Subsequently, cells were immediately transferred in PBS or lysed with lysis buffer within 30 minutes and analyzed via epifluorescence microscopy. […] Consequently, artifacts can be excluded due to fixing of cells.
# Additionally, cytoplasma membrane of HepG2 of cells was lysed with lysis buffer (20 mM HEPES, 10 mM KCl, 0.5 mM EDTA, 0.1% Triton X-100, pH7.5) subsequent to incubation. […] Consequently, FITC-BSA-TP conjugates are localized in the nucleus.
# HepG2 cells [5] = experiment: Uptake of conjugates into cells, epifluorescence microscopy; conditions: 1 h incubation, 5 μM, fixed with paraformaldehyde
# Experimental: as §3
# Therefore, HepG2 cells were incubated for 1 h with FITC-labelled BSA conjugates (5 μm) and fixed with paraformaldehyde. Results were analysed by epifluorescence microscopy (see FIG. 2). The cellular and nuclear epifluorescence photographs show an FITC signal of BSA in the left column and an FITC-BSA-TP signal in the right column. The corresponding nucleoli were colored using the fluorescent dye propidiumiodid.
# Dextran constructs and modifications were prepared analogously to BSA constructs as shown above in section 2.1. As a starting material an amino-modified dextran was used having a molecular weight of 70,000 (MW). […] Analysis was carried out using epifluorescence microscopy (see FIG. 4). The corresponding nucleoli were colored using the fluorescent dye propidiumiodid.
# Similar as shown in 2.1 and 2.2 IgG1 constructs were analyzed as to whether they may be transported into the cells upon TP modification. IgG1 constructs and modifications were prepared analogously to BSA and dextran constructs as shown above in sections 2.1 and 2.2. As a starting material bovine IgG was used having a molecular weight of approximately 130,000 (MW). […] Analysis was carried out using epifluorescence microscopy (see FIG. 5). The corresponding nucleoli were colored using the fluorescent dye propidiumiodid.
# PEG based negatively charged liposomes were used showing distal unmodified (carboxylic moiety) or TP-modified PEG chains. The liposomes were modified with fluorescence labelled lipids. Thereafter, HepG2 cells were coincubated with fluorescence labelled liposomes and fixed at different times. In order to detect uptake by cells and nucleus, epifluorescence microscopy was carried out (see FIG. 7). The nucleoli were colored with DAPI. From top to bottom a control experiment and the results from 1, 1.5, 2.5 and 4 h incubation are shown.
# Therefore, a reporter plasmid encoding the luciferase gene and having a size of 6.4 kb was TP modified and incubated with HepG2 cells for 1 h.
Compound,cellular or nuclear uptake (intact cells),"nuclear uptake, nucleus associated FITC fluorescence (FACS) (HepG2 cells [3])",cellular uptake (FACS) (HepG2 cells [3]),cellular uptake (uptake into cytoplasm) (HepG2 cells [5]),nuclear uptake (uptake into the nucleus) (HepG2 cells [5]),also measured
"non-modified β-galactosidase: enzyme β-galactosidase without TP modification, control",–,–,–,–,–,cellular uptake of β-galactosidase (HepG2 cells [1]): negligible; nuclear uptake of β-galactosidase (HepG2 cells [1]): no nuclear uptake
"FITC-BSA-NEM: FITC-BSA-SH reacted with excess N-ethylmaleimide, thiol blocked",Neither the free sulfhydryl moiety nor the sulfhydryl moiety blocked by N-ethylmaleimide mediated cellular or nuclear uptake,–,–,–,–,–
"FITC-BSA-SH: FITC-BSA-TP reacted with DTT, giving FITC-BSA conjugate with free thiol-function",Neither the free sulfhydryl moiety nor the sulfhydryl moiety blocked by N-ethylmaleimide mediated cellular or nuclear uptake,–,–,–,–,–
"O=C(CCCC[C@@H]1SC[C@@H]2NC(=O)N[C@@H]21)NCCCCCCNC(=O)CCSSc1ccccn1 [Biotin-HPDP, N-[6-(Biotinamido)hexyl]-3′-(2′-pyridyldithio)propionamide]",–,–,–,–,–,"delivery of cargo (FITC-Avidin) to cells, FITC-positive cells by FACS (CHO cells): efficiently deliver cargo molecules to cells; delivery of cargo (FITC-Avidin) to cells, FITC-positive cells by FACS (HeLa cells): efficiently deliver cargo molecules to cells"
FITC-BSA-TP: FITC-labelled BSA reacted with SPDP; thiopyridyl (PDP) conjugation degree ~9-10 per BSA,cellular and nuclear uptake are only observable if an intact TP-substituent is present,63%,78%,uptake of FITC-BSA-TP constructs into cytoplasm and nucleus,clearly observable; also recorded: uptake of FITC-BSA-TP constructs into cytoplasm and nucleus,"cellular uptake (localization in the cytoplasm) (HepG2 cells [2]): cellular uptake; nuclear uptake (localization in the nucleus) (HepG2 cells [2]): Uptake of BSA into the nucleus is clearly observable; also recorded: nuclear uptake of FITC-BSA-TP is observable; distribution in fixed versus non-fixed cells (HepG2 cells [4]; 5 μM, 1 h, transferred in PBS without fixing, epifluorescence): identical in both fixed and non-fixed HepG2 cells; fluorescence signal after lysis of cytoplasma membrane (HepG2 cells [4]; lysis buffer with 0.1% Triton X-100 after incubation): a fluorescence signal was clearly observed in the nucleus"
Biotin-Maleimid,–,–,–,–,–,"delivery of cargo (FITC-Avidin) to cells, FITC-positive cells by FACS (CHO cells): highly efficient cargo accumulation at the cellular surface; delivery of cargo (FITC-Avidin) to cells, FITC-positive cells by FACS (HeLa cells): highly efficient cargo accumulation at the cellular surface"
"FITC-BSA: BSA labelled with carboxyfluorescein-N-hydroxysuccinimidester, without TP modification",–,51%,55%,Uptake of non-modified FITC-BSA into cytoplasm of HepG2 cells could also be observed,no uptake of FITC-BSA into the nucleus could be observed,cellular uptake (localization in the cytoplasm) (HepG2 cells [2]): localization in the cytoplasm; nuclear uptake (localization in the nucleus) (HepG2 cells [2]): no localization of non-modified FITC-BSA in the nucleus could be observed
FITC-Dextran,–,7%,25%,Uptake of non-modified FITC-Dextran into cytoplasm of HepG2 cells could also be observed,no uptake of FITC-Dextran into the nucleus could be observed,–
